Assay [1] has as its system Xenopus erythrocyte nuclei. The assay is described as follows: Induction optimization: P^32-dCTP incorporation into DNA of pretreated nuclei in activating egg extract, cycloheximide added at different times. The format is biochemical. Particulars: total 60 minutes at 25° C. As for the experimental part: Induction optimization was carried for Xenopus as describe below (see also Example 2, infra, for further optimization experiments). Xenopus erythrocyte nuclei were isolated and pretreated with lysolecithin and trypsin as described in Example 2 (described below). An activating egg extract was prepared from hardened eggs which were induced for 10 minutes as described above. Both the activating egg extract and the pretreated nuclei were kept on ice (about 4° C.). The activating egg extract was supplemented with 1 mM ATP (not used in the other examples described herein), 10 μg/ml creatine phosphokinase, 10 mM creatine phosphate, 10 μCi P^32-dCTP and combined with pretreated nuclei (about 200 nuclei/μl). Individual aliquots containing activated nuclei were shifted from 4° C. to 25° C. […] After 60 minutes, P^32-dCTP incorporation into newly synthesized DNA was determined.

The test system of a further assay is erythrocyte nuclei. Nature of the assay: Supplements to CSF extract: chromatin assembly and later DNA synthesis in activating egg extract. The format is biochemical, Xenopus. The text has this:
After further pretreatment in CSF extract, the nuclei may be activated by adding 9 volumes of “prepared activating egg extract.” DNA replication, measured by incorporation of labelled nucleotides into DNA strands, may be used to determine the extent to which prior treatment in CSF extract enhances nuclear activation in activating extract. Labelled nucleotides useful in measuring nuclear DNA replication include microcurie amounts of P^32-dCTP for radioactive measurement of newly synthesized DNA, 16-50 μM biotinylated-dUTP or BrdUTP for fluorescent measurement of newly synthesized DNA, and 250 μM BrdUTP for density labelling of newly synthesized DNA.
Several supplements to CSF extract, in the proper concentration, increased the ability of CSF extract to enhance activation activity without resulting in premature DNA synthesis activity. Useful supplements include β-glycerol-PO4, Ca^2+, and protein kinase inhibitors. The addition of β-glycerol-PO4 increased the rate at which negatively supercoiled DNA relaxed in CSF extract and was subsequently assembled into chromatin. […] Beta-glycerol-PO4 is an inhibitor of phosphatase activity and may act by increasing the level of the phosphorylated functionally-active form of topoisomerase II in the CSF extract. […]

The subject of assay [2] is Xenopus red blood cells nuclei. Particulars: for Cpm Incorporated After X Minutes: 23° C. Here is the method: The affect of cAMP on DNA replication in activated Xenopus red blood cells was determined.
Cyclic-AMP was then added to separate aliquots to yield final concentrations of 0.0 μM, 0.1 μM, 1.0 μM, or 10 μM.
Each aliquot was warmed to 23° C. and sampled over time to determine P^32-dCTP incorporation into replicated DNA. At each time point, a 7 μl aliquot was taken, frozen on dry ice, and later thawed and digested by the addition of 10 μl replication sample buffer (80 mM Tris (pH 8.0), 8 mM EGTA, 0.13% phosphoric acid, 10% Ficoll, 5% SDS, 0.2% bromphenol blue) containing proteinase K (1.0 mg/ml) for 2 hours at room temperature. Incorporated radioactivity was analyzed by electrophoresis on a 0.8% agarose gel (50V, 20 hours) followed by vacuum drying the gel and counting on a Betascope.

The test system of assay [3] is Xenopus erythrocyte nuclei. The assay is described as follows: DNA replication in activating egg extract after further pretreatment in CSF extract supplemented with DMAP. The format is biochemical. Particulars: 5 mM DMAP in CSF extract; FIG. 2. As for the experimental part:
Addition of 6-dimethylaminopurine (DMAP) to CSF extracts was used to further pretreat Xenopus erythrocyte nuclei and stimulate subsequent DNA replication in activating egg extract. DMAP can be used to inhibit nucleic acid synthesis and protein kinase activity. Xenopus erythrocyte nuclei were isolated and pretreated as described in Example 1 above, and incubated in thawed “prepared CSF extract” supplemented with 80 mM β-glycerol-PO4, and 5 μg/ml nocodazole at a concentration of 2000 nuclei/μl. Further pretreatment was carried out by incubation for 30 minutes at 4° C., then 30 minutes at 25° C., then 60 minutes at 4° C. Half the samples were supplemented with 5 mM DMAP before addition of the nuclei. After the two hours of incubation, each sample was diluted with 9 volumes of activating egg extract, supplemented with 5 μg/ml nocodazole (this dose of nocodazole slows down the rate of replication) and approximately 160 μCi/ml P^32-dCTP. Aliquots were removed over time to measure DNA replication.

Assay [4] concerns human fetal liver erythroid cell nuclei. Nature of the assay: Activation of human fetal liver erythroid cell nuclei in activating extract (swelling, replication, chromosome formation). Particulars: aphidicolin added at T=0. The format is biochemical. As for the experimental part:
Step 5: Activation of erythroid cell nuclei. Nuclear swelling, envelope formation, and replication were carried out on human fetal liver erythroid cell nuclei prepared using the optimal conditions described in steps 1-4 above. […] The resulting nuclei concentration was about 200/μl.
The following measurement were taken: DNA synthesis was monitored using extract containing P^32dCTP by gel electrophoresis; histone H1 kinase was measured; and samples, labelled with biotinylated-dUTP were taken for cytological analysis of DNA replication and nuclear envelope breakdown.
Experiments were also carried out to determine whether nuclear swelling was dependent on DNA synthesis, by activating nucleic in the presence of aphidicolin (added at T=0).
Swelled and replicated nuclei were treated with Cyclin-Δ90 or CSF extract. Cyclin-Δ90 was added to activating extract to obtain prophase mitotic chromosomes, while CSF extract was added to obtain metaphase chromosomes and nuclear envelope breakdown.

Assay [5] deals with Xenopus red blood cells nuclei. Nature of the assay: DNA replication in activated nuclei in caffeine supplemented activating egg extract. The format is biochemical. Particulars: caffeine at 1.0 mM in the presence of 0.3 μM cAMP; compared with 0.2 mM and 5.0 mM; FIG. 1. As for the experimental part: The experimental conditions used were as described in Example 1 with the following changes: the concentration of cAMP was set at 0.3 μM and caffeine was added to the activating egg extract to a concentration of either 0.2 mM, 1.0 mM, or 5.0 mM.

Assay [6] in a line: Rate of DNA replication in activating egg extract with nocodazole. The format is biochemical. Particulars: 5 μg/ml nocodazole added to activating egg extract.

Read-outs that look alike come from different tables or passages of the source.

Consider `C[C@@H]1C[C@@H]([C@H](O)CC2CC(=O)NC(=O)C2)C(=O)[C@@H](C)C1` [CHM, Cycloheximide], for which the “Cpm Incorporated into DNA” value in assay [1] (CHM 100 μg/ml added at 0 minutes, extract from eggs induced 10 minutes) is listed as 2,894 Cpm; in assay [1] (CHM 100 μg/ml added at 5 minutes) it was 4,208 Cpm; in assay [1] (CHM 100 μg/ml added at 15 minutes), 4,937 Cpm; in assay [1] (CHM 100 μg/ml added at 30 minutes) it was 3,775 Cpm; in assay [1] (CHM 100 μg/ml added at 45 minutes) it was 2,314 Cpm.

For the compound `[Ca+2].[Cl-].[Cl-]` [Ca^2+, CaCl2], in the assay on erythrocyte nuclei (100 μM Ca^2+ added to CSF extract), the “amount and rate of DNA synthesis in erythrocyte nuclei after addition of activating egg extract” value was “increased both the amount and the rate of DNA synthesis”.

Regarding `Nc1ncnc2c1ncn2[C@@H]1O[C@@H]2COP(=O)(O)O[C@H]2[C@H]1O` [Cyclic AMP, Cyclic-AMP], the “DNA replication in activated nuclei compared to without any cAMP” value in assay [2] (0.1 μM cAMP) is listed as “increased”; in assay [2] (1.0 μM cAMP, compared with 0.1 μM) it was “greater increase”; in assay [2] (10 μM cAMP), “inhibits DNA replication”. Moreover, the “Cpm Incorporated After X Minutes” value is recorded as 14 Cpm in assay [2] (0.1 Micromoles of Cyclic AMP Added, after 0 minutes); 51 Cpm in assay [2] (0.1 Micromoles of Cyclic AMP Added, after 45 minutes); 68 Cpm in assay [2] (0.1 Micromoles of Cyclic AMP Added, after 90 minutes); 290 Cpm in assay [2] (0.1 Micromoles of Cyclic AMP Added, after 135 minutes); 1,141 Cpm in assay [2] (0.1 Micromoles of Cyclic AMP Added, after 180 minutes); 2,945 Cpm in assay [2] (0.1 Micromoles of Cyclic AMP Added, after 240 minutes). For the same compound, the “Cpm Incorporated After X Minutes” value in assay [2] (0.1 Micromoles of Cyclic AMP Added, after 300 minutes) was 2,692 Cpm; in assay [2] (1.0 Micromoles of Cyclic AMP Added, after 0 minutes) it was 10 Cpm; in assay [2] (1.0 Micromoles of Cyclic AMP Added, after 45 minutes) it was 14 Cpm; in assay [2] (1.0 Micromoles of Cyclic AMP Added, after 90 minutes) it was 56 Cpm; in assay [2] (1.0 Micromoles of Cyclic AMP Added, after 135 minutes) it was 564 Cpm; in assay [2] (1.0 Micromoles of Cyclic AMP Added, after 180 minutes), 2,316 Cpm. Further, the “Cpm Incorporated After X Minutes” value was 4,484 Cpm in assay [2] (1.0 Micromoles of Cyclic AMP Added, after 240 minutes); 5,504 Cpm in assay [2] (1.0 Micromoles of Cyclic AMP Added, after 300 minutes); 43 Cpm in assay [2] (10 Micromoles of Cyclic AMP Added, after 0 minutes); 34 Cpm in assay [2] (10 Micromoles of Cyclic AMP Added, after 45 minutes); 31 Cpm in assay [2] (10 Micromoles of Cyclic AMP Added, after 90 minutes); 35 Cpm in assay [2] (10 Micromoles of Cyclic AMP Added, after 135 minutes). Also, the “Cpm Incorporated After X Minutes” value in assay [2] (10 Micromoles of Cyclic AMP Added, after 180 minutes) came out at 85 Cpm; in assay [2] (10 Micromoles of Cyclic AMP Added, after 240 minutes), 168 Cpm; in assay [2] (10 Micromoles of Cyclic AMP Added, after 300 minutes) it was 571 Cpm.

Turning to `CN(C)c1ncnc2nc[nH]c12` [DMAP, 6-dimethylaminopurine], in assay [3], the “initial rate and total amount of DNA synthesis” value is recorded as “increased”; the “lag time before the onset of replication” value is reported as “decreased”.

Regarding `C[C@@]1(CO)[C@H](O)CC[C@@]2(C)[C@H]1CC[C@H]1C[C@@H]3C[C@@]12CC[C@]3(O)CO` [aphidicolin], in assay [4], the “replication (biotin labelling)” value is “no replication took place”. In addition, the nuclear swelling entry in assay [4] (absence of replication) is listed as “many nuclei swelled significantly”.

On to `Cn1c(=O)c2c(ncn2C)n(C)c1=O` [caffeine], for which the “initial rate and extent of DNA replication in activated nuclei” value in assay [5] is “highest initial rate and extent of DNA replication”.

Regarding `COC(=O)Nc1nc2ccc(C(=O)c3cccs3)cc2[nH]1` [nocodazole], the “rate of DNA replication” value in assay [6] is recorded as “decreases”.

In the case of `O=P(O)(O)OC(CO)CO` [β-glycerol-PO4], the “chromatin assembly in CSF extract” value in the assay with erythrocyte nuclei (about 80 mM β-glycerol-PO4) was “aid in chromatin assembly without causing DNA synthesis”.

Source of the values: US6878546B2, “Product and method for swelling a cell nucleus without DNA replication” (Brandeis University, priority 1993, dated 2005).
